# Experimental data from patent US9067977B2, “Peptides derivatized with A-B-C-D- and their therapeutical use” (Novo Nordisk A/S, priority 2007, dated 2015).
# Starred links: 1 amine or outer side, 2 acyl side, 3 side chain; linkers in the order of their positions; H or OH if unused. Non-standard residues stand in square brackets, D forms with d. Residues, ends and D or L forms follow the SMILES beside them. Groups on a side chain read outwards from the residue. *: point of attachment. X2 = O=C(O)CCCCCCCCCCCCCCCCCCC(=O)NCC1CCC(C(=O)*)CC1; C20 diacid = O=C(O)CCCCCCCCCCCCCCCCCCC(=O)*; C18 diacid = O=C(O)CCCCCCCCCCCCCCCCC(=O)*; d(βAsp) = O=C(O)[C@@H](CC(=O)[*:2])N[*:1]; γGlu = O=C(O)[C@H](CCC(=O)[*:2])N[*:1]; Desaminohistidyl = O=C(CCc1c[nH]cn1)*; AEEA = NCCOCCOCC(=O)O; Aib = CC(C)(N)C(=O)O; Inp = O=C(O)C1CCNCC1; Bn = c1ccc(C*)cc1
# Target: human serum albumin (HSA) (Homo sapiens, UniProt P02768)
# Sequence (P02768 25-609): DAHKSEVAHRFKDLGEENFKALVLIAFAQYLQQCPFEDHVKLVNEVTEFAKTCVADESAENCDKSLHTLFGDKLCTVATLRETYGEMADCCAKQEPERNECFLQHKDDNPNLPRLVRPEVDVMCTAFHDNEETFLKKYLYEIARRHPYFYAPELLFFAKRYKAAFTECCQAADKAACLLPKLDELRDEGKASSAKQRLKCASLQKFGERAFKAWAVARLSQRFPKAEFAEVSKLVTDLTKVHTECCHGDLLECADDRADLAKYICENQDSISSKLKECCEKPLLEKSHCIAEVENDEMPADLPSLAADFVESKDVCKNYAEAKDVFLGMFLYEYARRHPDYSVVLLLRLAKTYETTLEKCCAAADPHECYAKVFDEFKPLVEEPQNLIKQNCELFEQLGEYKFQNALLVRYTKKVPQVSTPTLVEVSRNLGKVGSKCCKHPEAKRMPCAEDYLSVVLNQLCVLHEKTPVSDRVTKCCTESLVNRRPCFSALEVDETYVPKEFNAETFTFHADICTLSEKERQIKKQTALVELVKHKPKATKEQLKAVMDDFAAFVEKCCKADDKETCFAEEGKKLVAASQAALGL
# Experiment: Albumin binding affinity, competition scintillation proximity assay
# Experimental: Streptavidin-SPA beads (GE Healthcare RPNQ0009) were incubated with biotinylated HSA for 5 hours. The beads were washed with buffer to remove unbound HSA. […] After 20 hours of gentle rocking at room temperature the plates were centrifuged and counted on a TopCounter.
SMILES,EC50 [nM],"EC50 at 20 h (human, biotinylated human serum albumin on streptavidin-SPA beads, pH 7.4) [nM]"
"CC[C@H](C)[C@H](NC(=O)[C@H](Cc1ccccc1)NC(=O)[C@H](CCC(=O)O)NC(=O)[C@H](CCCNC(=N)N)NC(=O)[C@H](C)NC(=O)[C@H](C)NC(=O)[C@H](CCC(N)=O)NC(=O)[C@H](CCC(=O)O)NC(=O)[C@H](CCC(=O)O)NC(=O)[C@H](CC(C)C)NC(=O)[C@H](Cc1ccc(O)cc1)NC(=O)[C@H](CO)NC(=O)[C@H](CO)NC(=O)[C@@H](NC(=O)[C@H](CC(=O)O)NC(=O)[C@H](CO)NC(=O)[C@@H](NC(=O)[C@H](Cc1ccccc1)NC(=O)[C@@H](NC(=O)CNC(=O)[C@H](CCC(=O)O)NC(=O)C(C)(C)NC(=O)[C@@H](N)Cc1c[nH]cn1)[C@@H](C)O)[C@@H](C)O)C(C)C)C(=O)N[C@@H](C)C(=O)N[C@@H](Cc1c[nH]c2ccccc12)C(=O)N[C@@H](CC(C)C)C(=O)N[C@H](C(=O)N[C@@H](CCCNC(=N)N)C(=O)NCC(=O)N[C@@H](CCCNC(=N)N)C(=O)N[C@@H](CCCCNC(=O)COCCOCCNC(=O)CC[C@H](NC(=O)CC[C@H](NC(=O)CCCCCCCCCCCNC(=O)CCCS(=O)(=O)NC(=O)CCCCCCCCCCCCCCCc1nnn[nH]1)C(=O)O)C(=O)O)C(N)=O)C(C)C [Example 48, N-epsilon37-[2-(2-{2-[(S)-4-Carboxy-4-((S)-4-carboxy-4-{12-[4-(16-(1H-tetrazol-5-yl)hexadecanoylsulfamoyl)butyrylamino]dodecanoylamino}butyrylamino)butyrylamino]ethoxy}ethoxy)acetyl][Aib8,Glu22,Arg26,Arg34,Lys37]GLP-1-(7-37)amide]",800 to 2000,
"CC[C@H](C)[C@H](NC(=O)[C@H](Cc1ccccc1)NC(=O)[C@H](CCC(=O)O)NC(=O)[C@H](CCCNC(=N)N)NC(=O)[C@H](C)NC(=O)[C@H](C)NC(=O)[C@H](CCC(N)=O)NC(=O)[C@H](CCC(=O)O)NC(=O)[C@H](CCC(=O)O)NC(=O)[C@H](CC(C)C)NC(=O)[C@H](Cc1ccc(O)cc1)NC(=O)[C@H](CO)NC(=O)[C@H](CO)NC(=O)[C@@H](NC(=O)[C@H](CC(=O)O)NC(=O)[C@H](CO)NC(=O)[C@@H](NC(=O)[C@H](Cc1ccccc1)NC(=O)[C@@H](NC(=O)CNC(=O)[C@H](CCC(=O)O)NC(=O)C(C)(C)NC(=O)[C@@H](N)Cc1c[nH]cn1)[C@@H](C)O)[C@@H](C)O)C(C)C)C(=O)N[C@@H](C)C(=O)N[C@@H](Cc1c[nH]c2ccccc12)C(=O)N[C@@H](CC(C)C)C(=O)N[C@H](C(=O)N[C@@H](CCCNC(=N)N)C(=O)NCC(=O)N[C@@H](CCCNC(=N)N)C(=O)NCC(=O)N[C@@H](CCCCNC(=O)COCCOCCNC(=O)COCCOCCNC(=O)CC[C@H](NC(=O)C1CCN(C(=O)CCCCCCCCCCCCCCCCCCC(=O)O)CC1)C(=O)O)C(N)=O)C(C)C [Example 12, [Aib8, Glu22, Arg26, Arg34]GLP-1-(7-37)Lys[2-(2-[2-(2-[2-(2-((S)-4-[1-[19-Carboxynonadecanoyl]piperidine-4-carbonylamino]-4-carboxybutyrylamino)ethoxy)ethoxy]acetylamino)ethoxy]ethoxy)acetyl]amide] (H-H[Aib]EGTFTSDVSSYLEEQAAREFIAWLVRGRGK([AEEA-AEEA-γGlu-Inp-C20 diacid])-NH2)",300 to 800,
"CC[C@H](C)[C@H](NC(=O)[C@H](Cc1ccccc1)NC(=O)[C@H](CCC(=O)O)NC(=O)[C@H](CCCCNC(=O)COCCOCCNC(=O)CC[C@H](NC(=O)CC[C@H](NC(=O)CCCNC(=O)CCCS(=O)(=O)NC(=O)CCCCCCCCCCCCCCCc1nnn[nH]1)C(=O)O)C(=O)O)NC(=O)[C@H](C)NC(=O)[C@H](C)NC(=O)[C@H](CCC(N)=O)NC(=O)CNC(=O)[C@H](CCC(=O)O)NC(=O)[C@H](CC(C)C)NC(=O)[C@H](Cc1ccc(O)cc1)NC(=O)[C@H](CO)NC(=O)[C@H](CO)NC(=O)[C@@H](NC(=O)[C@H](CC(=O)O)NC(=O)[C@H](CO)NC(=O)[C@@H](NC(=O)[C@H](Cc1ccccc1)NC(=O)[C@@H](NC(=O)CNC(=O)[C@H](CCC(=O)O)NC(=O)C(C)(C)NC(=O)[C@@H](N)Cc1c[nH]cn1)[C@@H](C)O)[C@@H](C)O)C(C)C)C(=O)N[C@@H](C)C(=O)N[C@@H](Cc1c[nH]c2ccccc12)C(=O)N[C@@H](CC(C)C)C(=O)N[C@H](C(=O)N[C@@H](CCCNC(=N)N)C(=O)O)C(C)C [Example 36, N-epsilon26-[2-(2-{2-[(S)-4-Carboxy-4-((S)-4-carboxy-4-{4-[4-(16-(1H-tetrazol-5-yl)hexadecanoylsulfamoyl)butyrylamino]butyrylamino}butyrylamino)butyrylamino]ethoxy}ethoxy)acetyl][Aib8,Arg34]GLP-1-(7-34)]",,100 to 150
"CC[C@H](C)[C@H](NC(=O)[C@H](Cc1ccccc1)NC(=O)[C@H](CCC(=O)O)NC(=O)[C@H](CCCNC(=N)N)NC(=O)[C@H](C)NC(=O)[C@H](C)NC(=O)[C@H](CCC(N)=O)NC(=O)CNC(=O)[C@H](CCC(=O)O)NC(=O)[C@H](CCCCNC(=O)COCCOCCNC(=O)COCCOCCNC(=O)C[C@@H](NC(=O)C1CCN(C(=O)CCCCCCCCCCCCCCCCC(=O)O)CC1)C(=O)O)NC(=O)[C@H](Cc1ccc(O)cc1)NC(=O)[C@H](CO)NC(=O)[C@H](CO)NC(=O)[C@@H](NC(=O)[C@H](CC(=O)O)NC(=O)[C@H](CO)NC(=O)[C@@H](NC(=O)[C@H](Cc1ccccc1)NC(=O)[C@@H](NC(=O)CNC(=O)[C@H](CCC(=O)O)NC(=O)C(C)(C)NC(=O)[C@@H](N)Cc1c[nH]cn1)[C@@H](C)O)[C@@H](C)O)C(C)C)C(=O)N[C@@H](CCC(=O)O)C(=O)N[C@@H](Cc1c[nH]c2ccccc12)C(=O)N[C@@H](CC(C)C)C(=O)N[C@H](C(=O)N[C@@H](CCCCN)C(=O)NCC(=O)N[C@@H](CCCNC(=N)N)C(=O)NCC(N)=O)[C@@H](C)OCc1ccccc1 [Example 8, N-ε^20({2-[2-(2-{2-[2-((R)-3-carboxy-3-{[1-(17-carboxyheptadecanoyl)piperidine-4-carbonyl]amino}propionylamino)ethoxy]ethoxy}acetylamino)ethoxy]ethoxy}acetyl) [Aib^8,Lys^20,Arg^28,Glu^30,Thr(O-benzyl)^33]GLP-1-(7-37)amide] (H-H[Aib]EGTFTSDVSSYK([AEEA-AEEA-d(βAsp)-Inp-C18 diacid])EGQAAREFIEWLT(Bn)KGRG-NH2; N-terminus assumed)",300 to 800,

# Other lines, results leading:
EC50 [nM],"EC50 at 20 h (human, biotinylated human serum albumin on streptavidin-SPA beads, pH 7.4) [nM]",SMILES
150 to 300,,"CC[C@H](C)[C@H](NC(=O)[C@H](Cc1ccccc1)NC(=O)[C@H](CCC(=O)O)NC(=O)[C@H](CCCNC(=N)N)NC(=O)[C@H](C)NC(=O)[C@H](C)NC(=O)[C@H](CCC(N)=O)NC(=O)[C@H](CCC(=O)O)NC(=O)[C@H](CCC(=O)O)NC(=O)[C@H](CC(C)C)NC(=O)[C@H](Cc1ccc(O)cc1)NC(=O)[C@H](CO)NC(=O)[C@H](CO)NC(=O)[C@@H](NC(=O)[C@H](CC(=O)O)NC(=O)[C@H](CO)NC(=O)[C@@H](NC(=O)[C@H](Cc1ccccc1)NC(=O)[C@@H](NC(=O)CNC(=O)[C@H](CCC(=O)O)NC(=O)[C@H](C)NC(=O)CCc1c[nH]cn1)[C@@H](C)O)[C@@H](C)O)C(C)C)C(=O)N[C@@H](C)C(=O)N[C@@H](Cc1c[nH]c2ccccc12)C(=O)N[C@@H](CC(C)C)C(=O)N[C@H](C(=O)N[C@@H](CCCNC(=N)N)C(=O)NCC(=O)N[C@@H](CCCNC(=N)N)C(=O)NCC(=O)N[C@@H](CCCCNC(=O)COCCOCCNC(=O)COCCOCCNC(=O)CC[C@H](NC(=O)C1CCC(CNC(=O)CCCCCCCCCCCCCCCCCCC(=O)O)CC1)C(=O)O)C(=O)O)C(C)C (stereo partly drawn) [Example 56, [DesaminoHis7,Glu22,Arg26,34]-GLP-1 (7-37)-Lys-[2-(2-{2-[2-(2-{2-[4-Carboxy-4-({4-[(19-carboxynonadecanoylamino)methyl]cyclohexanecarbonyl}amino)butyrylamino]ethoxy}ethoxy)acetylamino]ethoxy}ethoxy)acetyl] peptide] (Desaminohistidyl-AEGTFTSDVSSYLEEQAAREFIAWLVRGRGK([AEEA-AEEA-γGlu-X2])-OH)"
1 to 100,,"CC[C@H](C)[C@H](NC(=O)[C@H](Cc1ccccc1)NC(=O)[C@H](CCC(=O)O)NC(=O)[C@H](CCCNC(=N)N)NC(=O)[C@H](C)NC(=O)[C@H](C)NC(=O)[C@H](CCC(N)=O)NC(=O)[C@H](CCC(=O)O)NC(=O)[C@H](CCC(=O)O)NC(=O)[C@H](CC(C)C)NC(=O)[C@H](Cc1ccc(O)cc1)NC(=O)[C@H](CO)NC(=O)[C@H](CO)NC(=O)[C@@H](NC(=O)[C@H](CC(=O)O)NC(=O)[C@H](CO)NC(=O)[C@@H](NC(=O)[C@H](Cc1ccccc1)NC(=O)[C@@H](NC(=O)CNC(=O)[C@H](CCC(=O)O)NC(=O)[C@H](C)NC(=O)CCc1c[nH]cn1)[C@@H](C)O)[C@@H](C)O)C(C)C)C(=O)N[C@@H](C)C(=O)N[C@@H](Cc1c[nH]c2ccccc12)C(=O)N[C@@H](CC(C)C)C(=O)N[C@H](C(=O)N[C@@H](CCCNC(=N)N)C(=O)NCC(=O)N[C@@H](CCCNC(=N)N)C(=O)N[C@@H](CCCCNC(=O)COCCOCCNC(=O)CC[C@H](NC(=O)CC[C@H](NC(=O)CCCCCCCCCCCNC(=O)CCCS(=O)(=O)NC(=O)CCCCCCCCCCCCCCCc1nnn(C(C)(C)C)n1)C(=O)O)C(=O)O)C(=O)O)C(C)C [Example 64, N-epsilon37-{2-[2-(2-{(S)-4-[(S)-4-(12-{4-[16-(2-tert-Butyl-2H-tetrazol-5-yl)-hexadecanoylsulfamoyl]butyrylamino}dodecanoylamino)-4-carboxybutyrylamino]-4-carboxybutyrylamino}ethoxy)ethoxy]acetyl}[DesaminoHis7,Glu22,Arg26,Arg34,Lys37] GLP-1 (7-37)]"
